Source: patent US20100273652A1 (priority 2009, published 2010)

What was measured:
Format in all cases: cell-based
[1] = test system: Fusarium proliferatum; experiment: Growth inhibition of Fusarium proliferatum (OD620); conditions: OD620 at start and after 5 days
[2] = test system: fumonisin FB1 production of Fusarium proliferatum; experiment: Inhibition of fumonisin FB1 production of Fusarium proliferatum; conditions: 5 days, 20° C., vs control without compound
[3] = test system: DON/Acetyl-DON production of Fusarium graminearum
[4] = test system: Fusarium graminearum

Row | Structure (SMILES) | % inhibition at 50 μM Fusarium proliferatum (growth) [1] [%] | % inhibition at 50 μM FB1 [2] [%] | % inhibition at 50 μM DON/AcDON [3] [%] | % inhibition at 50 μM Fusarium graminearum (growth) [4] [%]
1 | Nc1cc(-c2[nH]c3cccnc3c2-c2ccc(F)cc2)ccn1 [Example 4] | 31 | 45 |  | 
2 | C=C=Cn1c(-c2ccncc2)c(-c2ccc(F)cc2)c2ncccc21 [Example 15] | 37 |  | 44 | 33
